# Laboratory results taken from US4849416A, “Treatment of conditions requiring enhanced oxygen availability to mammalian tissues” (Rorer Pharmaceutical Corporation, priority 1988, dated 1989).
# What was measured:
# [1] = tested on: 2,3-diphosphoglycerate phosphatase; conditions: at optimal concentrations; cited from earlier work
# human red blood cells = assay: Determination of 2,3-diphosphoglyceric acid content in human red blood cells; type: cell-based
# Protocol: 2. Determination of 2,3-Diphosphoglyceric Acid Content in Human Red Blood Cells Blood samples from healthy subjects were collected in heparnized tubes and were centrifuged for 10 minutes at 400 xg. The plasma and buffy layer containing while cells and platelets was removed. The red blood cells were washed three times in Krebs Ringer Bicarbonate buffer supplemented with 2.5 mg/ml bovine serum albumin. The washed cells were suspended in the same buffer in a ratio of 1 cell to 4 buffer v/v. The cell suspension was incubated in siliconized glass beakers in the absence and presence of the test compound at 37° C. in air, supplemented with 5% v/v carbon dioxide. After incubation, 1 ml of the blood sample was mixed with 1 ml of 12% w/v trichloroacetic acid. The mixture was left at 4° C. for 10 minutes and then was clarified by centrifugation. The 2,3-DPG content in the supernatant was quantified using a Sigma assay kit based on the method described by Lowry et al, J. Biol. Chem. 239, 18, 1964. Inhibition of 2,3-diphosphoglyceric acid degredation in human red blood cells was also conducted on compounds of the present invention and is shown in Table II for sulfasalazine.
# 2,3-DPG phosphatase = target: T1, 2,3-DPG phosphatase (Homo sapiens, UniProt P07738); assay: 2,3-Diphosphoglycerate phosphatase assay (radiochemical, release of 32P-phosphate from 2,3-DPG); type: biochemical; conditions: 110 μM 2,3-DPG, 5 μM phosphoglycolate, pH 7.5, 37° C., 20 minutes
# T1 sequence (P07738 1-259): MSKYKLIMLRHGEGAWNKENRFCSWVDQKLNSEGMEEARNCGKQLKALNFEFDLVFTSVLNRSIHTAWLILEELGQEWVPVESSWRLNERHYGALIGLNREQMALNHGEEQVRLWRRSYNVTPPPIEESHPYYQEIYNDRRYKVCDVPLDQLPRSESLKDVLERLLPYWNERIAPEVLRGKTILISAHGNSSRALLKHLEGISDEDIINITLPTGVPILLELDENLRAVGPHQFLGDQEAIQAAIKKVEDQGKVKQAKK
# Protocol: 1. 2,3-Diphosphoglycerate Phosphatase Assay
# The activity of 2,3-DPG phosphatase was determined radiochemically using a method based on Rose et al., (J. Biol. Chem. 245, 3232-3241, 1970). In this method the activity of the phosphatase is measured by determining the release of inorganic phosphate from the substrate, 2,3-DPG. The test compounds were dissolved in dimethyl sulfoxide at 100 times the final concentration used and then added to the reaction mixture at the beginning of the assay period. In the control experiments equivalent concentration of dimethyl sulfoxide was used.
# 14 μg of 2,3-DPG phosphatase was incubated in 0.2 ml of N-tris-[Hydroxy-methyl]methyl-2-aminoethane-sulfonic acid [TES], at pH 7.5, containing 110 μM ^32 p-labeled 2,3-DPG (having a specific activity of 70 to 200 μCi/μmol), 5 μM phosphoglycolate and 5 μM mercaptoethanol at 37° C. for 20 minutes in the presence and absence of the test compound. at the end of incubation the reaction was stopped by the addition of 0.1 ml of 15% w/v trichloroacetic acid and the sample was centrifuged (Eppendorf microfuge, Model 5413) in order to remove protein preciptitates. Then 0.2 ml of the supernatant was withdrawn and mixed with 0.1 ml of 8 M sulfuric acid, 0.1 ml of 5% w/v ammonium molybdate and 0.6 ml of water. The mixture then was extracted with 2 ml of isobutanol/benzene (1:1,v/v) and then centrifuged to effect separation of the phases. 1 ml of the organic phase containing the extracted ^32 p-phosphate was counted in a scintillation counter (Beckman, Model LS 8,000) using a program for ^32 p radioactivity. The activity of the enzyme was expressed as number of mole phosphate released per minute.
# From the data obtained using the radiochemical method, percent inhibition of 2,3-DPG phosphatase was calculated. […] Representative inhibitory activity is shown for sulfasalazine in Table I.
SMILES,"enhancement of the activity of 2,3-diphosphoglycerate phosphatase [1]","2,3-diphosphoglyceric acid content (human red blood cells; sulfasalazine 0.5 mM, incubation period 0 hrs, 37° C.)","2,3-diphosphoglyceric acid content (human red blood cells; sulfasalazine 0.5 mM, incubation period 3 hrs, 37° C. (control 3.7))","2,3-diphosphoglyceric acid content (human red blood cells; sulfasalazine 0.5 mM, incubation period 6 hrs, 37° C. (control 2.4))","2,3-diphosphoglyceric acid content (human red blood cells; sulfasalazine 1.0 mM, incubation period 0 hrs, 37° C.)","2,3-diphosphoglyceric acid content (human red blood cells; sulfasalazine 1.0 mM, incubation period 3 hrs, 37° C. (control 3.7))","2,3-diphosphoglyceric acid content (human red blood cells; sulfasalazine 1.0 mM, incubation period 6 hrs, 37° C. (control 2.4))","inhibition at 20 µM (2,3-DPG phosphatase; sulfasalazine 20 μM)","inhibition at 100 µM (2,3-DPG phosphatase; sulfasalazine 100 μM)","inhibition at 500 µM (2,3-DPG phosphatase; sulfasalazine 500 μM)","inhibition at 1000 µM (2,3-DPG phosphatase; sulfasalazine 1000 μM)"
O=C(O)COP(=O)(O)O [2-Phosphoglycolate],about 1600 fold,,,,,,,,,,
"O=C(O)c1cc(N=Nc2ccc(S(=O)(=O)Nc3ccccn3)cc2)ccc1O [sulfasalazine, 5-[[p-(2-pyridylsulfamoyl)phenyl]azo]salicyclic acid]",,4.4 μmole/ml RBC,3.9 μmole/ml RBC,3.0 μmole/ml RBC,4.4 μmole/ml RBC,4.1 μmole/ml RBC,3.5 μmole/ml RBC,23%,57%,86%,90%
